US20080070958A1, “Therapeutic Agent for Keratoconjunctival Disorder” (priority 2004, published 2008)

Test system: corneal damage in corneal disorder models
Test: Test for therapeutic effect on corneal damage (rat corneal disorder model, exorbital lacrimal gland removal, fluorescein staining score)
Format: in vivo, male SD rats
Conditions: for Improvement ratio (%): {(control)-(compound)}/{(control)-(normal eye)}x100; for Mean value of total scores: fluorescein staining score of cornea (upper, middle, lower parts, each 0-3), mean of 8 eyes
Procedure: Test for Therapeutic Effect on Corneal Damage Using male SD rats, in accordance with the method of Fujihara et al. (Invest. Ophthalmol. Vis. Sci. 42 (1): 96-100 (2001)), corneal disorder models were produced. After the production of the corneal disorder models, the improvement ratio of a corneal damage was evaluated according to the method of Murakami et al. (Journal of the eye 21 (1): 87-90 (2004)). Male SD rats were systemically anesthetized by an administration of Nembutal. Subsequently the exorbital lacrimal gland of each rat was removed and a corneal damage was induced over a period of 2 months. Then, E-4-[4-(5-methyl-2-phenyl-4-oxazolylmethoxy) benzyloxyimino]-4-phenylbutyric acid (Compound A), Z-2-[4-(5-methyl-2-phenyl-4-oxazolylmethoxy) benzyloxyimino]-2-(4-phenoxyphenyl) acetic acid (Compound B), 2-[2-propyl-3-[3-[2-ethyl-4-(4-fluorophenyl)-5-hydroxyphenoxy]propoxy]phenoxy]sodium benzoate (Compound C) or 2(S)-methoxy-3-[4-[3-(4-phenoxyphenoxy)propoxy]phenyl] propionic acid (Compound D) was administered to the rats as follows. A physiological saline solution of Compound A (0.006%) was instilled into both eyes 6 times a day for 7 days (one group consisting of 4 animals, 8 eyes). A physiological saline solution of Compound B (0.006%) was instilled into both eyes 6 times a day for 7 days (one group consisting of 4 animals, 8 eyes). A physiological saline solution of Compound C (0.006%) was instilled into both eyes 6 times a day for 7 days (one group consisting of 4 animals, 8 eyes). A phosphate-buffered saline (PBS) solution of Compound D (0.002%) was instilled into both eyes 6 times a day for 7 days (one group consisting of 4 animals, 8 eyes). In a control group, physiological saline or PBS was instilled into both eyes 6 times a day for 7 days (one group consisting of 4 animals, 8 eyes). Seven days after the start of instillation, the damaged parts of the cornea were stained with fluorescein. For each of the upper, middle and lower parts of the cornea, the degree of fluorescein staining was evaluated by scoring according to the criteria shown below and the mean value of the total scores for each of the above-mentioned parts was calculated. • 0: No punctate staining • 1: Scattered staining (punctate staining being separated) • 2: Moderate staining (a part of punctuate staining being adjacent) • 3: Heavy staining (punctate staining being barely separated) (Results) By taking the mean value of the total scores for the control group (physiological saline or PBS) as a standard (improvement ratio: 0%), the calculation was carried out. Each of the improvement ratios for the Compound A administration group, the Compound B administration group and the Compound C administration group is shown in Table 1 and the improvement ratio for the Compound D administration group is shown in Table 2. The mean value of the scores is a mean of those of 8 cases, respectively. The improvement ratio was calculated according to the following equation. Improvement ratio (%)={(control)−(the present compound)}/damage degree×100 Damage degree={(control)−(normal eye)}

[1] = 0.006% in physiological saline instilled into both eyes 6 times a day for 7 days, vs physiological saline control (0%)
[2] = 0.006% in physiological saline instilled into both eyes 6 times a day for 7 days, normal eye 3.0, saline control 6.1

Row | Structure (SMILES) | Improvement ratio (%) [1] [%] | Mean value of total scores [2] | Improvement ratio (%) (0.002% in PBS instilled into both eyes 6 times a day for 7 days, vs PBS control (0%)) | Mean value of total scores (0.002% in PBS instilled into both eyes 6 times a day for 7 days, normal eye 3.1, PBS control 5.6)
1 | Cc1oc(-c2ccccc2)nc1COc1ccc(CO/N=C(\CCC(=O)O)c2ccccc2)cc1 [Compound A, E-4-[4-(5-methyl-2-phenyl-4-oxazolylmethoxy)benzyloxyimino]-4-phenylbutyric acid] | 32.3 | 5.1 |  | 
2 | CCCc1c(OCCCOc2cc(O)c(-c3ccc(F)cc3)cc2CC)cccc1Oc1ccccc1C(=O)[O-].[Na+] [Compound C, 2-[2-propyl-3-[3-[2-ethyl-4-(4-fluorophenyl)-5-hydroxyphenoxy]propoxy]phenoxy]sodium benzoate] | 38.7 | 4.9 |  | 
3 | Cc1oc(-c2ccccc2)nc1COc1ccc(CO/N=C(\C(=O)O)c2ccc(Oc3ccccc3)cc2)cc1 [Compound B, Z-2-[4-(5-methyl-2-phenyl-4-oxazolylmethoxy)benzyloxyimino]-2-(4-phenoxyphenyl) acetic acid] | 32.3 | 5.1 |  | 
4 | CO[C@@H](Cc1ccc(OCCCOc2ccc(Oc3ccccc3)cc2)cc1)C(=O)O [Compound D, 2(S)-methoxy-3-[4-[3-(4-phenoxyphenoxy)propoxy]phenyl] propionic acid] |  |  | 12.0 | 5.3
